Experiments:
[1] = target: T1, Peroxisome proliferator-activated receptor gamma (Homo sapiens) (UniProt P37231); details: filed as agonist
T1 sequence (whole entry): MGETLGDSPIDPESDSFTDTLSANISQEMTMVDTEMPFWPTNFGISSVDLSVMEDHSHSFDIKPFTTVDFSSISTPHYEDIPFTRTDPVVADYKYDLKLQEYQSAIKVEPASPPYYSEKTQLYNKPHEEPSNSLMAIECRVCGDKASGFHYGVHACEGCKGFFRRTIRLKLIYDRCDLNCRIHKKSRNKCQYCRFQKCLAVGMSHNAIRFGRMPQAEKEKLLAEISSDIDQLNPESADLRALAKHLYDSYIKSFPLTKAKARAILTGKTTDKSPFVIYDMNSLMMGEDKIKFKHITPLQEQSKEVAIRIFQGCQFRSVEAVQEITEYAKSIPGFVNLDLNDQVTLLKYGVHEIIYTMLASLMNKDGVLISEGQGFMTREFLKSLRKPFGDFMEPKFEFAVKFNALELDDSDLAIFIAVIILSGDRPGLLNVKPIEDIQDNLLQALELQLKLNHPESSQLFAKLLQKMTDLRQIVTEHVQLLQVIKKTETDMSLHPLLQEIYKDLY

[2] = target: T2, Peroxisome proliferator-activated receptor alpha (Homo sapiens) (UniProt Q07869); details: filed as agonist
T2 sequence (whole entry): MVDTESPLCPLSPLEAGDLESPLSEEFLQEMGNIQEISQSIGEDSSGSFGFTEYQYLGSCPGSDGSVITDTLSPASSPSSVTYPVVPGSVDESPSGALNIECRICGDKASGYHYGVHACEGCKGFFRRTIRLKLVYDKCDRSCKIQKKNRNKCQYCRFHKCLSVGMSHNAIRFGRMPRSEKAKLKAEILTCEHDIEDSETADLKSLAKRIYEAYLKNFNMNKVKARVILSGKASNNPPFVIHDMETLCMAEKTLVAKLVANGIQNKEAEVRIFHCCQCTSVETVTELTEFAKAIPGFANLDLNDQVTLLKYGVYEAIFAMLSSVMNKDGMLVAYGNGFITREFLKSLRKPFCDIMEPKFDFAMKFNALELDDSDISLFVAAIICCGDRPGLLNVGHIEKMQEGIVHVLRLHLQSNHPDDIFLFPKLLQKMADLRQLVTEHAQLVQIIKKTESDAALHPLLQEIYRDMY
Description: Binding affinity to recombinant PPAR alpha LBD (unknown origin) expressed in Escherichia coli BL21 assessed as melting temperature by differential scanning calorimetry analysis (Rvb = 47.45 degreeC)

Tm [1] [°C]	Tm [2] [°C]	SMILES
53	–	CN(CCOc1ccc(CC2SC(=O)NC2=O)cc1)c1ccccn1 (configuration not stated)
–	50	Cc1cccc(Nc2cc(Cl)nc(SCC(=O)O)n2)c1C

Source: ChEMBL document CHEMBL5344417
